Data reported in PubChem BioAssay (NCI).
“And” between values parts separate entries of the source, which are not always exact repeats. Equal values may be shown once.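 Each compound was tested at five concentrations against cells in 96-well plates for 48 hours. GI50 marks 50% less growth. TGI denotes the concentration required for complete inhibition of growth.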

Legend:
Test in all cases: inhibition of tumour cell growth, NCI panel, 48 h
[1] = tested on: NCI/ADR-RES ovarian
[2] = tested on: IGROV1 ovarian
[3] = tested on: TK-10 renal
[4] = tested on: MALME-3M melanoma
[5] = tested on: 786-0 renal
[6] = tested on: BT-549 breast
[7] = tested on: MDA-MB-231 breast
[8] = tested on: MDA-MB-435
[9] = tested on: U251 CNS
[10] = tested on: SF-268 CNS

Row | Compound | GI50 [1] | TGI [1] | GI50 [2] | TGI [2] | GI50 [3] | TGI [3] | GI50 [4] | TGI [4] | GI50 [5] | TGI [5] | GI50 [6] | TGI [6] | GI50 [7] | TGI [7] | GI50 [8] | TGI [8] | GI50 [9] | TGI [9] | GI50 [10] | TGI [10]
1 | O=C(N/N=C/c1ccccc1O)c1ccccc1Nc1ccnc(C(F)(F)F)c1 | 0.433 µM | 30.1 µM | 0.0154 µM | 0.0883 µM | 0.467 µM | > 100 µM | 0.858 µM | 19.2 µM | 0.46 µM | 9.26 µM | 0.527 µM | 59 µM | 0.796 µM | > 95.4 µM | 1.37 µM | > 100 µM | 0.442 µM | > 100 µM | 0.448 µM | > 89.3 µM
2 | CCOc1cc2c(Cl)ncnc2c(OCC)c1OCC | 25.6 µM | > 64.3 µM | 1.6 µM | 3.53 µM | 26.9 µM | > 76.2 µM | 9.5 µM | 27.5 µM | 19 µM | 36.8 µM | 4.82 µM | 14.5 µM | 11.9 µM | 24.9 µM | 6.06 µM | 21.2 µM | 7 µM | 19.6 µM | 2.84 µM | 7.9 µM
3 | C=CCCCCCCCCC(=O)[O][Sn]([CH2]CCC)([CH2]CCC)[CH2]CCC | 0.163 µM | 0.32 µM | 0.148 µM | 0.335 µM | 0.165 µM | 0.311 µM | 0.135 µM | 0.287 µM | 0.143 µM | 0.275 µM | 0.14 µM | 0.277 µM | 0.14 µM | 0.304 µM | 0.153 µM | 0.319 µM | 0.165 µM | 0.318 µM | 0.149 µM | 0.309 µM
4 | CCN(CC)CCOc1ccc(/C(=C(\Cl)c2ccccc2)c2ccccc2)cc1 | 5.56 µM and 3.34 µM | 12.2 µM and 14.4 µM | 4.83 µM and 3.04 µM | 12.8 µM and 14.1 µM | 5.62 µM and 2.83 µM | 12.6 µM and 10.2 µM | 1.21 µM and 1.43 µM | 3.88 µM and 2.99 µM | 0.94 µM and 1.7 µM | 1.81 µM and 3.17 µM | 5.48 µM and 2.91 µM | 11.9 µM and 12.1 µM | 1.37 µM and 2.13 µM | 5.16 µM and 4.49 µM | 1.54 µM and 2.2 µM | 5.78 µM and 7.08 µM | 1.72 µM and 1.53 µM | 7.22 µM and 3.51 µM | 5.47 µM and 4.78 µM | 11.9 µM and 19.2 µM
5 | C[C@]12CC[C@H]3[C@@H](CC=C4C[C@@H](O)CC[C@@]43C)[C@@H]1CC[C@@H]2N(CCO)CCO | – | > 100 µM | – | > 100 µM | – | > 100 µM | – | > 100 µM | – | 42.7 µM | – | > 100 µM | – | > 100 µM | – | > 100 µM | – | > 100 µM | – | > 100 µM
6 | N#Cc1ccc(NC(=O)Nc2ccc(Oc3ccc(NC(=O)Nc4ccc(C#N)cc4)cc3)cc2)cc1 | 13 µM | > 100 µM | 30.4 µM | > 100 µM | 23.2 µM | 89 µM | 3.28 µM | 77.8 µM | 10.5 µM | 63.4 µM | 3.48 µM | 24.2 µM | 12.4 µM | > 100 µM | 17.1 µM | > 100 µM | 4.85 µM | 27.8 µM | 10.8 µM | > 100 µM
7 | FC(F)(F)c1cccc(Nc2nccc(-c3cnn4nc(-c5ccccc5)ccc34)n2)c1 | 8.37 µM | > 21.7 µM | 11.4 µM | > 25 µM | 9.22 µM | > 19.2 µM | 7.23 µM | 14.1 µM | 5.22 µM | 11.2 µM | 18.8 µM | > 25 µM | 5.58 µM | > 20.9 µM | 10.4 µM | > 25 µM | 4.58 µM | 10.1 µM | 10.3 µM | > 19.2 µM
8 | COc1cc([N+](=O)[O-])cc2c3c(n(C)c12)[C@@]1(C)CCC2c4ccc(OCc5ccccc5)cc4CCC2C1C3 (stereo not given in full) | > 100 µM | > 100 µM | > 100 µM | > 100 µM | 86 µM | > 100 µM | > 100 µM | > 100 µM | > 100 µM | > 100 µM | > 100 µM | > 100 µM | 62.6 µM | > 100 µM | > 100 µM | > 100 µM | 37.5 µM | > 100 µM | > 100 µM | > 100 µM
9 | Nc1nc(Cl)c2ncn(Cc3ccc(C45CC6CC(CC(C6)C4)C5)c(O)c3)c2n1 | 3.15 µM | 16.4 µM | 4.72 µM | 21.9 µM | 2.2 µM | 8.93 µM | 2.22 µM | 16.3 µM | 6.04 µM | 20 µM | 6.82 µM | 25.2 µM | 1.85 µM | 11.4 µM | 5.14 µM | 23.2 µM | 3.09 µM | 12.9 µM | 5.34 µM | 21.4 µM
